Like-named read-outs stand apart in the source and are kept apart here.
Assays:
contorsions [1] = test: SIEGMUND phenylbenzoquinone contorsion test; type: in vivo, male mice; conditions: Mus musculus
Procedure: The third test was carried out according to the technique of SIEGMUND and al (Proc. Soc. Exp. Biol. Med. 95, 729, 1957) on batches of 10 male mice.
A typical syndrome was produced in the animals by intraperitoneal injection of 0.25 ml. of a 0.02% aqueous solution of 2-phenyl-1,4-benzoquinone (phenylbenzoquinone).
The syndrome in question is characterized by intermittent contractions of the abdomen, twisting and turning of the trunk and extension of the hind legs. Note was taken of the number of movements occurring over a period of 30 minutes starting 15 minutes after the injection of phenylbenzoquinone.
The compound to be tested was injected 30 minutes before the phenylbenzoquinone in such a way that each batch received a higher dose than the preceding batch, a control batch receiving only the phenylbenzoquinone.
Note was taken of the AD50, i.e. the dose of substance which reduced at least by half the number of contorsions in half of the animals, as compared to the number of contorsions observed in the control group.

contorsions [2] = test: KOSTER acetic acid contorsion test, intragastric; type: in vivo, mice; conditions: Mus musculus, po
Procedure: The first test was carried out according to the technique of KOSTER (Fed. Proc. 18, 412, 1959) on batches of 20 mice which had been deprived of food for 18 hours.
Each batch of animals with the exception of the controls was given an intragastric dose of the compound to be studied so that each batch received a higher dose than the preceding batch. Thirty minutes after administration, the animals of each batch, as well as the control animals, were given intraperitoneally 0.2 ml. of a 0.25% acetic acid solution per 10 g. of body-weight.
During the 20 minutes following the injection of acetic acid, the number of characteristic contorsions made by the animals was noted. The absence of contorsions corresponds to animals under the influence of analgesia.
Note was taken of the AD50, i.e. the dose of the compound under study which provoked analgesia in half of the animals treated.

pain-threshold voltage = test: CHARLIER electric stimulation pain-threshold test, intragastric; type: in vivo, rats; conditions: Rattus norvegicus, po
Procedure: The fourth test was carried out according to the technique of CHARLIER and al (Arch. int. Pharmacodyn. 134, 306, 1961) on batches of 10 rats.
The animals were connected to a source of electric current by means of two electrodes of which one was attached to the tail and the other maintained in the rectum.
The pain-threshold voltage was then determined for each rat by passing a current of 2 volts and increasing the current by one volt at a time until the animal gave a squeak. This control test was repeated three times at intervals of 15 minutes. The compound under study was then administered by intragastric route and, starting from the threshold-voltage already determined note was taken, every 10 minutes for 2 hours, of the voltage which caused the animals to squeak.
The results were noted according to the WINTER and FLATAKER scale (J. Pharmacol. Exp. Therap. 98, 305, 1950) and the AD's 50 obtained are listed in the Table given hereunder: […]

[3] = system: squeak at threshold-voltage (pain); test: NILSEN electric tail stimulation test, intragastric; type: in vivo, mice; conditions: Mus musculus, po
Procedure: The second test was carried out according to the technique of NILSEN (Acta Pharmacol. et toxicol. 18, 10, 1961) on batches of 10 mice.
The animals were connected to a source of electric current by means of two electrodes inserted into the tail.
The threshold-voltage was then determined, i.e. the minimum voltage which, in the course of two successive shocks, caused the animals to squeak at least one time out of two. After this, the compound to be studied was administered by intragastric route.
Note was taken of the dose of compound (AD50) which suppressed the squeak in half of the treated animals.

[4] = system: reaction time (flick-tail); test: animal or person; type: in vivo, male rats; conditions: Rattus norvegicus, sc, read-out: AD50
[5] = system: squeak at threshold-voltage (pain); test: animal or person; type: in vivo, mice; conditions: Mus musculus, sc, read-out: AD50
contorsions [6] = test: animal or person; type: in vivo, mice; conditions: Mus musculus, sc, read-out: AD50

CC(=O)Oc1ccccc1C(=O)O [Acetylsalicyclic acid, Acetylsalicylic acid]
ED50 (contorsions [1]; read-out: AD50): 50 mg/kg
ED50 (contorsions [2]; read-out: AD50): 150 mg/kg
ED50 (pain-threshold voltage; 2 h, read-out: AD50): 1300 mg/kg
ED50 ([3]; read-out: AD50): 1100 mg/kg

Cc1cc(=O)n(-c2ccccc2)n1C [Antipyrine]
ED50 (contorsions [1]; injected 30 minutes before phenylbenzoquinone, male mice, contorsions reduced at least by half in half of the animals, read-out: AD50 (the source's name)): 100 mg/kg
ED50 (contorsions [2]; intragastric, mice, 30 min before 0.25% acetic acid i.p., analgesia in half of the animals, read-out: AD50 (the source's name)): 120 mg/kg
ED50 (pain-threshold voltage; intragastric, rats, WINTER and FLATAKER scale, 2 hours, read-out: AD50 (the source's name)): 500 mg/kg
ED50 ([3]; intragastric, mice, suppressed the squeak in half of the treated animals, read-out: AD50 (the source's name)): 400 mg/kg

O=C(OCC(O)CO)c1ccccc1Nc1ccnc2cc(Cl)ccc12 (stereo not shown) [Glafenine]
ED50 (contorsions [1]; read-out: AD50): 325 mg/kg
ED50 (contorsions [2]; read-out: AD50): 110 mg/kg

CC(C)=CCN1CCC2(C)c3cc(O)ccc3CC1C2C (stereo not shown) [Pentazocine]
ED50 (contorsions [2]; read-out: AD50): 45 mg/kg
ED50 [4]: 3 mg/kg
ED50 [5]: 12 mg/kg
ED50 (contorsions [6]): 5 mg/kg

CCOC(=O)C1(c2ccccc2)CCN(C)CC1 [Pethidine]
ED50 [4]: 5.5 mg/kg
ED50 [5]: 7 mg/kg
ED50 (pain-threshold voltage; 2 h, read-out: AD50): 50 mg/kg
ED50 (contorsions [6]): 7 mg/kg

CCOc1ccc(NC(C)=O)cc1 [Phenacetine]
ED50 (contorsions [1]; read-out: AD50): 80 mg/kg
ED50 (contorsions [2]; read-out: AD50): 160 mg/kg
ED50 (pain-threshold voltage; 2 h, read-out: AD50): 750 mg/kg
ED50 ([3]; read-out: AD50): 450 mg/kg

Reference: US4173636A, “Decahydroquinolines, pharmaceutical compositions and methods of use” (Labaz, priority 1975, dated 1979)
